Assay results reported in patent publication US10208081B2, “Bile acid derivatives as FXR/TGR5 agonists and methods of use thereof” (Enanta Pharmaceuticals, Inc., priority 2014, dated 2019).
pEC50: −log10 of the molar value.

Target: human FXR (NR1H4) (Homo sapiens (Human), UniProt Q96RI1)
Assay: Human FXR (NR1H4) Assay (Gal4 promoter driven luciferase reporter, Indigo Bioscience kit IB00601)
Type: cell-based
Conditions: for Efficacy (%): efficacy normalized to CDCA set as 100%; for pEC50: potency ranges
Method in brief: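 CHO reporter cells expressing human FXR with Gal4-driven, FXR-responsive luciferase treated with compound doses (0.2% DMSO) for 22 hours at 37° C. Luciferase luminescence then measured as surrogate of FXR activation for potency and efficacy.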

Chain of human FXR (NR1H4) (Q96RI1 whole entry, the tested form may be a part): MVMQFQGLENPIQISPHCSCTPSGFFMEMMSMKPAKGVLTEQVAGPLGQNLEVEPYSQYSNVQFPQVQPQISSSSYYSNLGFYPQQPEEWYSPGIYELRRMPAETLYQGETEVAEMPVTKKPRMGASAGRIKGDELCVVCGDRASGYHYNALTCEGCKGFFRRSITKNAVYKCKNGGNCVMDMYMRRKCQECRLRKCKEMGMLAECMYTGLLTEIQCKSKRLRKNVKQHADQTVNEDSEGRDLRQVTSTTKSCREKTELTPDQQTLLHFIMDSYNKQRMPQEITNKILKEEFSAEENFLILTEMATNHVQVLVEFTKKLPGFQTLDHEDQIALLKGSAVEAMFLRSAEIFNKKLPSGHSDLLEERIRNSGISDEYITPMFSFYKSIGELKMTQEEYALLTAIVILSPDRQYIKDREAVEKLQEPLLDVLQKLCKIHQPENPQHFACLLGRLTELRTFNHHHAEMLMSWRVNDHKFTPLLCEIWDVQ

SMILES | Efficacy (%) | pEC50
CC[C@H]1[C@@H](O)[C@@H]2[C@H](CC[C@]3(C)[C@@H]([C@H](C)CCNC(=O)NS(=O)(=O)c4cnn(CC)c4)CC[C@@H]23)[C@@]2(C)CC[C@@H](O)C[C@@H]12 [Example 109] | 219% | 6.00 to 7.00
CC[C@H]1[C@@H](O)[C@@H]2[C@H](CC[C@]3(C)[C@@H]([C@H](C)CCNC(=O)NS(=O)(=O)C(F)(F)F)CC[C@@H]23)[C@@]2(C)CC[C@@H](O)C[C@@H]12 [Example 104] | 298% | 5.00 to 6.00
CC[C@H]1[C@@H](O)[C@@H]2[C@H](CC[C@]3(C)[C@@H]([C@H](C)CCNC(=O)NS(=O)(=O)C4(C)CC4)CC[C@@H]23)[C@@]2(C)CC[C@@H](O)C[C@@H]12 [Example 46] | 315% | > 7.00
CC[C@H]1[C@@H](O)[C@@H]2[C@H](CC[C@]3(C)[C@@H]([C@H](C)CCNC(=O)NS(=O)(=O)c4ccc(C)cc4)CC[C@@H]23)[C@@]2(C)CC[C@@H](O)C[C@@H]12 [Example 93] | 443% | > 7.00
CC[C@H]1[C@@H](O)[C@@H]2[C@H](CC[C@]3(C)[C@@H]([C@H](C)CCNC(=O)NS(=O)(=O)c4ccc(C(F)(F)F)cc4)CC[C@@H]23)[C@@]2(C)CC[C@@H](O)C[C@@H]12 [Example 14] | 295% | 6.00 to 7.00
CC[C@H]1[C@@H](O)[C@@H]2[C@H](CC[C@]3(C)[C@@H]([C@H](C)CNC(=O)NS(=O)(=O)c4cccc(N5CCCCC5)c4)CC[C@@H]23)[C@@]2(C)CC[C@@H](O)C[C@@H]12 [Example 121] | 199% | 6.00 to 7.00
CC[C@H]1[C@@H](O)[C@@H]2[C@H](CC[C@]3(C)[C@@H]([C@H](C)CCNC(=O)NS(=O)(=O)c4ccncc4)CC[C@@H]23)[C@@]2(C)CC[C@@H](O)C[C@@H]12 [Example 49] | 236% | 5.00 to 6.00
CC[C@H]1[C@@H](O)[C@@H]2[C@H](CC[C@]3(C)[C@@H]([C@H](C)CCNC(=O)NS(=O)(=O)c4cccs4)CC[C@@H]23)[C@@]2(C)CC[C@@H](O)C[C@@H]12 [Example 21] | 402% | 6.00 to 7.00
CC[C@H]1[C@@H](O)[C@@H]2[C@H](CC[C@]3(C)[C@@H]([C@H](C)CCNC(=O)NS(=O)(=O)C4CCC(F)(F)CC4)CC[C@@H]23)[C@@]2(C)CC[C@@H](O)C[C@@H]12 [Example 89] | 351% | > 7.00
CC[C@H]1[C@@H](O)[C@@H]2[C@H](CC[C@]3(C)[C@@H]([C@H](C)CCNC(=O)NS(=O)(=O)c4ccc(-c5ccno5)cc4OC)CC[C@@H]23)[C@@]2(C)CC[C@@H](O)C[C@@H]12 [Example 73] | 444% | 6.00 to 7.00
CC[C@H]1[C@@H](O)[C@@H]2[C@H](CC[C@]3(C)[C@@H]([C@H](C)CCNC(=O)NS(=O)(=O)c4ccc(C(=O)O)cc4)CC[C@@H]23)[C@@]2(C)CC[C@@H](O)C[C@@H]12 [Example 120] | 198% | 5.00 to 6.00
CC[C@H]1[C@@H](O)[C@@H]2[C@H](CC[C@]3(C)[C@@H]([C@H](C)CCNC(=O)NS(=O)(=O)Nc4ccc(C(C)(C)C)cc4)CC[C@@H]23)[C@@]2(C)CC[C@@H](O)C[C@@H]12 [Example 105] | 322% | 6.00 to 7.00
CC[C@H]1[C@@H](O)[C@@H]2[C@H](CC[C@]3(C)[C@@H]([C@H](C)CCNS(=O)(=O)C(C)(C)C)CC[C@@H]23)[C@@]2(C)CC[C@@H](O)C[C@@H]12 [Example 139] | 138% | 5.00 to 6.00
CC[C@H]1[C@@H](O)[C@@H]2[C@H](CC[C@]3(C)[C@@H]([C@H](C)CCNC(=O)NS(=O)(=O)N4CC5CC5C4)CC[C@@H]23)[C@@]2(C)CC[C@@H](O)C[C@@H]12 (some centres unmarked) [Example 68] | 458% | > 7.00
CC[C@H]1[C@@H](O)[C@@H]2[C@H](CC[C@]3(C)[C@@H]([C@H](C)CNC(=O)NS(=O)(=O)c4ccccc4)CC[C@@H]23)[C@@]2(C)CC[C@@H](O)C[C@@H]12 [Example 31] | 305% | 6.00 to 7.00
CC[C@H]1[C@@H](O)[C@@H]2[C@H](CC[C@]3(C)[C@@H]([C@H](C)CNS(=O)(=O)CCC(=O)O)CC[C@@H]23)[C@@]2(C)CC[C@@H](O)C[C@@H]12 [Example 140] | 1% | –
CC[C@H]1[C@@H](O)[C@@H]2[C@H](CC[C@]3(C)[C@@H]([C@H](C)CCCNS(=O)(=O)[O-])CC[C@@H]23)[C@@]2(C)CC[C@@H](O)C[C@@H]12.[Na+] [Example 135] | 4% | 5.00 to 6.00

SMILES | Efficacy (%) | pEC50
CC[C@H]1[C@@H](O)[C@@H]2[C@H](CC[C@]3(C)[C@@H]([C@H](C)CNC(=O)NS(=O)(=O)c4cccc(OC(F)(F)F)c4)CC[C@@H]23)[C@@]2(C)CC[C@@H](O)C[C@@H]12 [Example 116] | 322% | > 7.00
CC[C@H]1[C@@H](O)[C@@H]2[C@H](CC[C@]3(C)[C@@H]([C@H](C)CCNC(=O)NS(=O)(=O)N(C)C)CC[C@@H]23)[C@@]2(C)CC[C@@H](O)C[C@@H]12 [Example 91] | 399% | > 7.00
CC[C@H]1[C@@H](O)[C@@H]2[C@H](CC[C@]3(C)[C@@H]([C@H](C)CCNC(=O)NS(=O)(=O)c4cccc(C)c4)CC[C@@H]23)[C@@]2(C)CC[C@@H](O)C[C@@H]12 [Example 13] | 245% | > 7.00
CC[C@H]1[C@@H](O)[C@@H]2[C@H](CC[C@]3(C)[C@@H]([C@H](C)CCCCNS(=O)(=O)C(C)(C)C)CC[C@@H]23)[C@@]2(C)CC[C@@H](O)C[C@@H]12 [Example 136] | 159% | 5.00 to 6.00
CC[C@H]1[C@@H](O)[C@@H]2[C@H](CC[C@]3(C)[C@@H]([C@H](C)CCNC(=O)NS(=O)(=O)c4cnccn4)CC[C@@H]23)[C@@]2(C)CC[C@@H](O)C[C@@H]12 [Example 64] | 334% | 5.00 to 6.00
CC[C@H]1[C@@H](O)[C@@H]2[C@H](CC[C@]3(C)[C@@H]([C@H](C)CCNC(=O)NS(=O)(=O)c4cccc(OC(F)(F)F)c4)CC[C@@H]23)[C@@]2(C)CC[C@@H](O)C[C@@H]12 [Example 50] | 309% | > 7.00
CC[C@H]1[C@@H](O)[C@@H]2[C@H](CC[C@]3(C)[C@@H]([C@H](C)CCNC(=O)NS(=O)(=O)Cc4ccccc4)CC[C@@H]23)[C@@]2(C)CC[C@@H](O)C[C@@H]12 [Example 63] | 452% | 6.00 to 7.00
CC[C@H]1[C@@H](O)[C@@H]2[C@H](CC[C@]3(C)[C@@H]([C@H](C)CCNC(=O)NS(=O)(=O)c4nccs4)CC[C@@H]23)[C@@]2(C)CC[C@@H](O)C[C@@H]12 [Example 100] | 364% | 5.00 to 6.00
C[C@H](CCNC(=O)NS(=O)(=O)c1ccc(C(C)(C)C)cc1)[C@H]1CC[C@H]2[C@@H]3[C@H](O)C[C@@H]4C[C@H](O)CC[C@]4(C)[C@H]3CC[C@]12C [Example 110] | 320% | 5.00 to 6.00
CC[C@H]1[C@@H](O)[C@@H]2[C@H](CC[C@]3(C)[C@@H]([C@H](C)CCCNS(=O)(=O)c4ccccc4)CC[C@@H]23)[C@@]2(C)CC[C@@H](O)C[C@@H]12 [Example 10] | 168% | 6.00 to 7.00
CC[C@H]1[C@@H](O)[C@@H]2[C@H](CC[C@]3(C)[C@@H]([C@H](C)CCNC(=O)NS(=O)(=O)N4CCS(=O)(=O)CC4)CC[C@@H]23)[C@@]2(C)CC[C@@H](O)C[C@@H]12 [Example 83] | 348% | 5.00 to 6.00
CC[C@H]1[C@@H](O)[C@@H]2[C@H](CC[C@]3(C)[C@@H]([C@H](C)CCNC(=O)NS(=O)(=O)c4ccc(-c5cnc(C)o5)cc4C)CC[C@@H]23)[C@@]2(C)CC[C@@H](O)C[C@@H]12 [Example 79] | 249% | 6.00 to 7.00
CC[C@H]1[C@@H](O)[C@@H]2[C@H](CC[C@]3(C)[C@@H]([C@H](C)CCNC(=O)NS(=O)(=O)c4cc(F)cc(F)c4)CC[C@@H]23)[C@@]2(C)CC[C@@H](O)C[C@@H]12 [Example 102] | 210% | > 7.00
CC[C@H]1[C@@H](O)[C@@H]2[C@H](CC[C@]3(C)[C@@H]([C@H](C)CCNC(=O)NS(C)(=O)=O)CC[C@@H]23)[C@@]2(C)CC[C@@H](O)C[C@@H]12 [Example 6] | 269% | 6.00 to 7.00
CC[C@H]1[C@@H](O)[C@@H]2[C@H](CC[C@]3(C)[C@@H]([C@H](C)CCNC(=O)NS(=O)(=O)N4C[C@H](C)C[C@H](C)C4)CC[C@@H]23)[C@@]2(C)CC[C@@H](O)C[C@@H]12 [Example 97] | 308% | > 7.00
CC[C@H]1[C@@H](O)[C@@H]2[C@H](CC[C@]3(C)[C@@H]([C@H](C)CCNC(=O)NS(=O)(=O)c4ccc(C)c(F)c4)CC[C@@H]23)[C@@]2(C)CC[C@@H](O)C[C@@H]12 [Example 16] | 265% | > 7.00
